Assay results from patent US11331299B2, “Medicinal use of serrulatane diterpenes” (The University of Sydney, priority 2016, dated 2022).

Key:
Type in all cases: biochemical
PRMT1 (h) = PRMT1 (h) (Homo sapiens, UniProt Q99873); test: Epigenetic enzyme assay, Methyltransferases (MTs); settings: read-out: % Inhibition of Control Values
hSMYD2 = hSMYD2 (Homo sapiens, UniProt Q9NRG4); test: Epigenetic enzyme assay, Methyltransferases (MTs); settings: for inhibition at 10 µM: read-out: % Inhibition of Control Values
Chain of hSMYD2 (Q9NRG4 whole entry): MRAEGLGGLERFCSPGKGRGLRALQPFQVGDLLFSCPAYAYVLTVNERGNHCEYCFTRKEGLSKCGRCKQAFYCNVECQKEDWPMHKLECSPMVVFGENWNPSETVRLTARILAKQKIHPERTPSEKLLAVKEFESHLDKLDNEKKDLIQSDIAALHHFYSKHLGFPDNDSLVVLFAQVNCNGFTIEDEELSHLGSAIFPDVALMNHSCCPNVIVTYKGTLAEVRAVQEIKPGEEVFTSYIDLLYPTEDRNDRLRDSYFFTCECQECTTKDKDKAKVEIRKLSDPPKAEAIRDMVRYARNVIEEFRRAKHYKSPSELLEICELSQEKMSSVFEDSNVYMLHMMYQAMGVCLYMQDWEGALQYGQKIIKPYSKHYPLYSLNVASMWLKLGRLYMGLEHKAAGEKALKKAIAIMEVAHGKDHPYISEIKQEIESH

[1] = biological target: MSK1(h) (substrate histone H3 full length) (Homo sapiens, UniProt O75582); test: Epigenetic enzyme assay, Kinases; settings: read-out: % Inhibition of Control Values
Chain of MSK1(h) (substrate histone H3 full length) (O75582 whole entry): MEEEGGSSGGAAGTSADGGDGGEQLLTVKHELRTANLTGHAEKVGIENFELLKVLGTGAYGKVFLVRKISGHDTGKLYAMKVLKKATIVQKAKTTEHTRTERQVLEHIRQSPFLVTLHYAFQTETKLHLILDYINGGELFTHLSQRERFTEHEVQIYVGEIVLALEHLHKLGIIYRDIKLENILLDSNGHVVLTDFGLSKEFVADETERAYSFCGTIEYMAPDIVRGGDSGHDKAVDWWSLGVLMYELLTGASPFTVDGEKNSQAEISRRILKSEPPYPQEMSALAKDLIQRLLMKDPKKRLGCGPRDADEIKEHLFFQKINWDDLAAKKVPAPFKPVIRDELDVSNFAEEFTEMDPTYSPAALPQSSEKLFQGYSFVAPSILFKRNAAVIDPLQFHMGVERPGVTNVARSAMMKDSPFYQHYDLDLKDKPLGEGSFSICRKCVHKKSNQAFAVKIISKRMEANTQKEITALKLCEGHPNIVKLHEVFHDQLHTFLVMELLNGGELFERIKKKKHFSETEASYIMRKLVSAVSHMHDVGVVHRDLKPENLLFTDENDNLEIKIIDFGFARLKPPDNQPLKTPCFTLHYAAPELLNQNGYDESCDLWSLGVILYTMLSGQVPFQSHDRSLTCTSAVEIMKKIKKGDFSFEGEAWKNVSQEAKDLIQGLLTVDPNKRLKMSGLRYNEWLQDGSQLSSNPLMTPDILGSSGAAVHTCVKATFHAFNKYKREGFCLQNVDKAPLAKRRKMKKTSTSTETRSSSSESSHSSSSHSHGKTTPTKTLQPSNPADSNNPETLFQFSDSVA

[2] = biological target: Guanidinoacetate N-methyltransferase (h) (Homo sapiens, UniProt Q14353); test: Epigenetic enzyme assay, Small molecule methyltransferases; settings: read-out: % Inhibition of Control Values
[3] = biological target: Histamine N-methyltransferase (h) (Homo sapiens, UniProt P50135); test: as above; settings: read-out: % Inhibition of Control Values
Chain of Histamine N-methyltransferase (h) (P50135 whole entry): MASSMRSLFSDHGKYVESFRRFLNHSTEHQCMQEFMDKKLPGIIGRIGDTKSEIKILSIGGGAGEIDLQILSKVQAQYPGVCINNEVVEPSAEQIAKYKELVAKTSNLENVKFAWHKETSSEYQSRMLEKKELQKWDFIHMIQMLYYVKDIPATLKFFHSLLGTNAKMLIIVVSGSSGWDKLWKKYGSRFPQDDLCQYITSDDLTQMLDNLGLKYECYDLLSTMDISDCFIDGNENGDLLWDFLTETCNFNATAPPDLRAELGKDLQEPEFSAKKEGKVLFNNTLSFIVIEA

HAT1(h) = biological target: T1, HAT1(h) (Homo sapiens, UniProt O14929); test: Epigenetic enzyme assay, Histone acetyltransferases (HATs); settings: read-out: % Inhibition of Control Values
T1 sequence (O14929 1-419): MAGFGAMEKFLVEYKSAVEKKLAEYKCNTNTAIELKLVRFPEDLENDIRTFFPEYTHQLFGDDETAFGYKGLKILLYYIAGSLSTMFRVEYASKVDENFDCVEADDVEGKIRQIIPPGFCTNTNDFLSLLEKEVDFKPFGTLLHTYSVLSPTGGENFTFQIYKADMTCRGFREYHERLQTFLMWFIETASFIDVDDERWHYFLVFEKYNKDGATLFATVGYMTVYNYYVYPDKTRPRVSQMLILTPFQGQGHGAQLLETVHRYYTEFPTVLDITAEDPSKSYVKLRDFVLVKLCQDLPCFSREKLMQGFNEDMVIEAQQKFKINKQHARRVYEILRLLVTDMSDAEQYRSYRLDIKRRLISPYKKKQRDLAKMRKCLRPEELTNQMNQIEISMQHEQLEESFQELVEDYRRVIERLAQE

[4] = biological target: T2, sirtuin 3 (h) (inhibitor effect) (Homo sapiens, UniProt Q9NTG7); test: Epigenetic enzyme assay, Sirtuins; settings: read-out: % Inhibition of Control Values
T2 sequence (Q9NTG7 1-399): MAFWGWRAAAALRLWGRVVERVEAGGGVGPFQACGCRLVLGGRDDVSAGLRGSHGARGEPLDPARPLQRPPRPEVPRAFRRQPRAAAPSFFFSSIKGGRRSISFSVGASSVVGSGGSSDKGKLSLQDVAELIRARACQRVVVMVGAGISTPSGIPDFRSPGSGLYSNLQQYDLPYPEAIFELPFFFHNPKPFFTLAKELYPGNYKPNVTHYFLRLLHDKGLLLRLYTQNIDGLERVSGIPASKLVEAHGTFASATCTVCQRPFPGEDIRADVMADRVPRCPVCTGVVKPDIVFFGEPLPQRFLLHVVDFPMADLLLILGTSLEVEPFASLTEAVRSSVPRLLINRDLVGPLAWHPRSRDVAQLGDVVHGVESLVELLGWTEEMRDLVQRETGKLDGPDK

[5] = biological target: DAPK3/ZIP (substrate histone H3 full length) (Homo sapiens, UniProt O43293); test: Epigenetic enzyme assay, Kinases; settings: read-out: % Inhibition of Control Values
Chain of DAPK3/ZIP (substrate histone H3 full length) (O43293 whole entry): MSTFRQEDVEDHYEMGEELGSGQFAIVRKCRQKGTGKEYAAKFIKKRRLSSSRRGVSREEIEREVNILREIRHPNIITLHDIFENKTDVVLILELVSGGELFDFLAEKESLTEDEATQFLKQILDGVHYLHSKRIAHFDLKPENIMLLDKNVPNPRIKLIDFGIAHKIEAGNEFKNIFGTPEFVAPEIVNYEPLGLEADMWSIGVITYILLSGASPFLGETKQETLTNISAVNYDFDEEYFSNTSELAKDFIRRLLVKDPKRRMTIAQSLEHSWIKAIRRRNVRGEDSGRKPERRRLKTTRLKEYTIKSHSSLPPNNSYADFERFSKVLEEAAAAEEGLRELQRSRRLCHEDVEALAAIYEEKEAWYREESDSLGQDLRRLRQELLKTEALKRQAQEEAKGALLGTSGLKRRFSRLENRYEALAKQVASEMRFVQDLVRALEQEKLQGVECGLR

WHSC1(h) (NSD2(h)) = biological target: T3, WHSC1(h) (NSD2(h)) (Homo sapiens, UniProt O96028); test: Epigenetic enzyme assay, Methyltransferases (MTs); settings: 10 μM; read-out: % Inhibition of Control Values
T3 sequence (O96028 1-1365): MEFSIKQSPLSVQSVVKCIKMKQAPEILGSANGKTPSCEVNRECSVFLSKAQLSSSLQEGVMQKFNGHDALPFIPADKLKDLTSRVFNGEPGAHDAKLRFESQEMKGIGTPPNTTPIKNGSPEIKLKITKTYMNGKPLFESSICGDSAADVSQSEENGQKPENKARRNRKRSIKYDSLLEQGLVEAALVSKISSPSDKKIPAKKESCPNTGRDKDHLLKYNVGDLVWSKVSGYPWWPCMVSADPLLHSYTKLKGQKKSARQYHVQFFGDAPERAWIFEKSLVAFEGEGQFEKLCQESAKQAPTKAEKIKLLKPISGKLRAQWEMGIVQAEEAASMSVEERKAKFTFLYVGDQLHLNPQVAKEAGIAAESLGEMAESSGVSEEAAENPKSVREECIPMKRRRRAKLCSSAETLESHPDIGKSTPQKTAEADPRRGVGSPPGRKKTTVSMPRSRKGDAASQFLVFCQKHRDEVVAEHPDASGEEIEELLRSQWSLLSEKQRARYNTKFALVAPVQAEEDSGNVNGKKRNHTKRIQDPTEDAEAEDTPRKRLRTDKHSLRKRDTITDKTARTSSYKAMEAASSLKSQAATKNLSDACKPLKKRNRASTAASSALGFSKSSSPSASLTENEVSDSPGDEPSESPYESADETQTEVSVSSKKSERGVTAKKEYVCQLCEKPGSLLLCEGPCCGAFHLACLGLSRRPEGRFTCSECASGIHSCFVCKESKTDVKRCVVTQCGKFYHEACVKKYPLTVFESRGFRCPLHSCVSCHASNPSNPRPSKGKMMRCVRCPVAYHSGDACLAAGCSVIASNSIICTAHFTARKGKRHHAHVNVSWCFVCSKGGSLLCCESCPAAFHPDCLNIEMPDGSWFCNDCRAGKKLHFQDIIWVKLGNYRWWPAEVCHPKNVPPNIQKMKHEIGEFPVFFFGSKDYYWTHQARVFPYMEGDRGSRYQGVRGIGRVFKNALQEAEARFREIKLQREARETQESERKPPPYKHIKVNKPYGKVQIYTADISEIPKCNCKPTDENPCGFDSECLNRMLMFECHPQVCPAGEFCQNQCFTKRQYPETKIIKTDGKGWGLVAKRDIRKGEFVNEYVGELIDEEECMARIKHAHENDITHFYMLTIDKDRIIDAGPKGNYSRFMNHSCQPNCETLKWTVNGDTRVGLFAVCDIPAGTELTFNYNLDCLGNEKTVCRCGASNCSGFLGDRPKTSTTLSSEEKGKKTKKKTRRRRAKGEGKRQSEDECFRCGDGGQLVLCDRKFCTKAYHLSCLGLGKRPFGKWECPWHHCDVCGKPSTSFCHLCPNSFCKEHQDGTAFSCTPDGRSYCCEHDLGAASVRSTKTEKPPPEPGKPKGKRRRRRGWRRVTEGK

[6] = biological target: T4, Thiopurine S-methyltransferase (h) (Homo sapiens, UniProt P51580); test: Epigenetic enzyme assay, Small molecule methyltransferases; settings: read-out: % Inhibition of Control Values
T4 sequence (P51580 1-245): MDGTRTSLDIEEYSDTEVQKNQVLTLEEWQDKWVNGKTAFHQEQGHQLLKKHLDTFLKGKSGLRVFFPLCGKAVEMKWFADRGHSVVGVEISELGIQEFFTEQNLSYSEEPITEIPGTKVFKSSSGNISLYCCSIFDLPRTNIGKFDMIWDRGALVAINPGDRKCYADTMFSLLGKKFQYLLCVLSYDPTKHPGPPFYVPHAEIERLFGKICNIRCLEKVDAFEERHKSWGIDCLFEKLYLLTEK

Chain of PRMT1 (h) (Q99873 whole entry): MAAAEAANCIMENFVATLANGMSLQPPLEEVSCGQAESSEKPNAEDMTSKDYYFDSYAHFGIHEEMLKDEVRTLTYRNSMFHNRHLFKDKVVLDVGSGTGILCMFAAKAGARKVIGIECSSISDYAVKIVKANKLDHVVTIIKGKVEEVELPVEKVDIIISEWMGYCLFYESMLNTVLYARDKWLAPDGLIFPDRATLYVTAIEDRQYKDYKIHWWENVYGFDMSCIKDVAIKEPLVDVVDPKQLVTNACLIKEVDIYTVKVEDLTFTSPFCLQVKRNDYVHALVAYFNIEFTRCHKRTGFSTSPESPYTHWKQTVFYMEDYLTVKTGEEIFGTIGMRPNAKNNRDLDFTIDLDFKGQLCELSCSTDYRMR

| Compound | inhibition at 10 µM (PRMT1 (h)) [%] | inhibition at 10 µM (hSMYD2) [%] | inhibition at 10 µM [1] [%] | inhibition at 10 µM [2] [%] | inhibition at 10 µM [3] [%] | inhibition at 10 µM (HAT1(h)) [%] | inhibition at 10 µM [4] [%] | inhibition at 10 µM [5] [%] | inhibition at 10 µM (WHSC1(h) (NSD2(h))) [%] | inhibition at 10 µM [6] [%] | IC50 (hSMYD2; read-out: Reference IC50) [nM] |
| --- | --- | --- | --- | --- | --- | --- | --- | --- | --- | --- | --- |
| CC(C)=CCC[C@H](CO)[C@@H]1CC[C@@H](C)c2c1cc(C)c(O)c2O [Compound 1, 7,8,18-trihydroxyserrulat-14-ene] | 16 | 12 | 6 | 8 | 18 | -3 | -14 | 4 | 3 | 40 |  |
| CC(C)=CCC[C@@H]1C(O)Oc2c(C)cc(O)c3c2[C@H]1CC[C@H]3C (stereo partly shown) [Compound 2, 5,18-epoxyserrulat-14-en-8,18-diol] | 26 | 5 | 2 | -1 | -2 | 3 | -8 | 9 | 14 | 28 |  |
| CC(C)=CCC[C@@H]1COc2c(C)cc(O)c3c2[C@H]1CC[C@H]3C [Compound 3, 5,18-epoxy-8-hydroxyserrulat-14-ene] | -1 | -12 | 10 | -1 | 18 | -3 | -3 | 8 | 7 | 19 |  |
| Nc1ncnc2c1ncn2[C@@H]1O[C@H](CSCC[C@H](N)C(=O)O)[C@@H](O)[C@H]1O [SAH] |  |  |  |  |  |  |  |  |  |  | 160 |
